A word on the IC50: it is the point on the concentration scale where inhibition reaches its midpoint.

Molecules are shown by their SMILES. Where only a bound is given, the exact number is not on record here.

p38, sequence (Q16539 whole entry, the tested form may be a part): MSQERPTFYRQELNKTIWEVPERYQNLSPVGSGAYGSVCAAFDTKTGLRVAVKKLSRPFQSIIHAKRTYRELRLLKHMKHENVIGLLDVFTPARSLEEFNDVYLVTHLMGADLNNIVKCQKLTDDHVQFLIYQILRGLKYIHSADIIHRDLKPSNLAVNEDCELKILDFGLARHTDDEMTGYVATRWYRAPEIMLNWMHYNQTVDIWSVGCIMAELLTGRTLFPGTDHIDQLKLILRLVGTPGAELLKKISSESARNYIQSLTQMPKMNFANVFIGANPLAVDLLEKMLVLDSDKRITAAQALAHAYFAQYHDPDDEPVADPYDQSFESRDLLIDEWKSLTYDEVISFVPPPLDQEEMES

The target in the assay is p38 (Homo sapiens, UniProt Q16539). Nature of the assay: Protein Kinase Assay (33P incorporation from γ-[33P]ATP into GST-ATF-2). It counts as biochemical. To be noted: 2 nM p38, preincubated 20 min at 30° C.; 10 uM cold ATP, 2 uM GST-ATF2, 70 min; read-out: ACT. (Activity), IC50 category in Protein Kinase Assay. In a few lines:
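Compounds preincubated 20 min at 30 °C with 2 nM p38; reaction started with 2 uM GST-ATF-2 (aa 19-96) and 10 uM ATP plus γ-[33P]ATP, pH 7.5, 70 min at 30 °C, 2% DMSO. Phosphoric acid stop; 33P-labelled substrate captured on phosphocellulose and counted by scintillation.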
As for `Cc1ncc(NC(=O)Nc2sc(C(C)(C)C)cc2C(=O)N2CCNC(=O)C2(C)C)cc1-c1ccc(N2CCOCC2)nc1` [1-(5-tert-butyl-3-(2,2-dimethyl-3-oxopiperazine-1-carbonyl)thiophen-2-yl)-3-(2-methyl-6′-morpholino-3,3′-bipyridin-5-yl)urea], the IC50 was below 0.1 µM.
Take `CC(C)(C)c1cc(C(=O)N2CCNC(=O)C2(C)C)c(NC(=O)Nc2cccc(-c3ccnc(F)c3)c2)s1` [1-(5-tert-butyl-3-(2,2-dimethyl-3-oxopiperazine-1-carbonyl)thiophen-2-yl)-3-(3-(2-fluoropyridin-4-yl)phenyl)urea]: the IC50 is below 0.1 µM.
Regarding `Cc1nc(-c2cccc(NC(=O)Nc3sc(C(C)(C)C)cc3C(=O)N3CCNC(=O)C3(C)C)c2)cs1` [1-(5-tert-butyl-3-(2,2-dimethyl-3-oxopiperazine-1-carbonyl)thiophen-2-yl)-3-(3-(2-methylthiazol-4-yl)phenyl)urea], the IC50 is below 0.1 µM.
`Cc1ccc(NC(=O)Nc2sc(C(C)(C)C)cc2C(=O)N2CCNC(=O)C2(C)C)cc1-c1c(C)noc1C` [1-(5-tert-butyl-3-(2,2-dimethyl-3-oxopiperazine-1-carbonyl)thiophen-2-yl)-3-(3-(3,5-dimethylisoxazol-4-yl)-4-methylphenyl)urea]: the IC50 was below 0.1 µM.
The result for `COCCOCC#Cc1cc(NC(=O)Nc2sc(C(C)(C)C)cc2C(=O)N2CCNC(=O)C2(C)C)ccc1C` [1-(5-tert-butyl-3-(2,2-dimethyl-3-oxopiperazine-1-carbonyl)thiophen-2-yl)-3-(3-(3-(2-methoxyethoxy)prop-1-ynyl)-4-methylphenyl)urea] reads below 0.1 µM; that for `CN1CCN(c2cccc(NC(=O)Nc3sc(C(C)(C)C)cc3C(=O)N3CCNC(=O)C3(C)C)c2)CC1` [1-(5-tert-butyl-3-(2,2-dimethyl-3-oxopiperazine-1-carbonyl)thiophen-2-yl)-3-(3-(4-methylpiperazin-1-yl)phenyl)urea], below 10 µM.
Take `CCc1ccc(-c2cc(NC(=O)Nc3sc(C(C)(C)C)cc3C(=O)N3CCNC(=O)C3(C)C)ccc2C)nc1` [1-(5-tert-butyl-3-(2,2-dimethyl-3-oxopiperazine-1-carbonyl)thiophen-2-yl)-3-(3-(5-ethylpyridin-2-yl)-4-methylphenyl)urea]: the 50% inhibitory concentration (IC50) is below 0.1 µM.
Regarding `COc1ccc(-c2cc(NC(=O)Nc3sc(C(C)(C)C)cc3C(=O)N3CCNC(=O)C3(C)C)ccc2C)nc1` [1-(5-tert-butyl-3-(2,2-dimethyl-3-oxopiperazine-1-carbonyl)thiophen-2-yl)-3-(3-(5-methoxypyridin-2-yl)-4-methylphenyl)urea], the IC50 was below 0.1 µM.
With `Cc1ccc(NC(=O)Nc2sc(C(C)(C)C)cc2C(=O)N2CCNC(=O)C2(C)C)cc1-c1ccc(C(C)O)nc1` (centres unmarked) [1-(5-tert-butyl-3-(2,2-dimethyl-3-oxopiperazine-1-carbonyl)thiophen-2-yl)-3-(3-(6-(1-hydroxyethyl)pyridin-3-yl)-4-methylphenyl)urea], the IC50 is below 0.1 µM.
Take `Cc1ccc(NC(=O)Nc2sc(C(C)(C)C)cc2C(=O)N2CCNC(=O)C2(C)C)cc1-c1ccc(OCCN(C)C)nc1` [1-(5-tert-butyl-3-(2,2-dimethyl-3-oxopiperazine-1-carbonyl)thiophen-2-yl)-3-(3-(6-(2-(dimethylamino)ethoxy)pyridin-3-yl)-4-methylphenyl)urea]: the IC50 is below 0.1 µM.
Consider `CN(C)CCOc1ccc(-c2cccc(NC(=O)Nc3sc(C(C)(C)C)cc3C(=O)N3CCNC(=O)C3(C)C)c2)cn1` [1-(5-tert-butyl-3-(2,2-dimethyl-3-oxopiperazine-1-carbonyl)thiophen-2-yl)-3-(3-(6-(2-(dimethylamino)ethoxy)pyridin-3-yl)phenyl)urea], for which the IC50 was below 0.1 µM.
Take `CC(C)(C)c1cc(C(=O)N2CCNC(=O)C2(C)C)c(NC(=O)Nc2cccc(-c3ccc(OCCN4CCOCC4)nc3)c2)s1` [1-(5-tert-butyl-3-(2,2-dimethyl-3-oxopiperazine-1-carbonyl)thiophen-2-yl)-3-(3-(6-(2-morpholinoethoxy)pyridin-3-yl)phenyl)urea]: the IC50 was below 0.1 µM.
Next, `CN1CCN(CCCOc2ccc(-c3cccc(NC(=O)Nc4sc(C(C)(C)C)cc4C(=O)N4CCNC(=O)C4(C)C)c3)cn2)CC1` [1-(5-tert-butyl-3-(2,2-dimethyl-3-oxopiperazine-1-carbonyl)thiophen-2-yl)-3-(3-(6-(3-(4-methylpiperazin-1-yl)propoxy)pyridin-3-yl)phenyl)urea]: below 0.1 µM; `Cc1ccc(NC(=O)Nc2sc(C(C)(C)C)cc2C(=O)N2CCNC(=O)C2(C)C)cc1-c1ccc(OCCCN(C)C)nc1` [1-(5-tert-butyl-3-(2,2-dimethyl-3-oxopiperazine-1-carbonyl)thiophen-2-yl)-3-(3-(6-(3-(dimethylamino)propoxy)pyridin-3-yl)-4-methylphenyl)urea]: below 0.1 µM.
For the compound `CN(C)CCCOc1ccc(-c2cccc(NC(=O)Nc3sc(C(C)(C)C)cc3C(=O)N3CCNC(=O)C3(C)C)c2)cn1` [1-(5-tert-butyl-3-(2,2-dimethyl-3-oxopiperazine-1-carbonyl)thiophen-2-yl)-3-(3-(6-(3-(dimethylamino)propoxy)pyridin-3-yl)phenyl)urea], the IC50 is below 0.1 µM.
For the compound `Cc1ccc(NC(=O)Nc2sc(C(C)(C)C)cc2C(=O)N2CCNC(=O)C2(C)C)cc1-c1ccc(N2CCC(N(C)C)C2)nc1` (centres unmarked) [1-(5-tert-butyl-3-(2,2-dimethyl-3-oxopiperazine-1-carbonyl)thiophen-2-yl)-3-(3-(6-(3-(dimethylamino)pyrrolidin-1-yl)pyridin-3-yl)-4-methylphenyl)urea], the IC50 is below 0.1 µM.
Turning to `CC(C)(C)c1cc(C(=O)N2CCNC(=O)C2(C)C)c(NC(=O)Nc2cccc(-c3ccc(OCCCc4ccccn4)nc3)c2)s1` [1-(5-tert-butyl-3-(2,2-dimethyl-3-oxopiperazine-1-carbonyl)thiophen-2-yl)-3-(3-(6-(3-(pyridin-2-yl)propoxy)pyridin-3-yl)phenyl)urea], the IC50 was below 0.1 µM.
`CC(C)(C)c1cc(C(=O)N2CCNC(=O)C2(C)C)c(NC(=O)Nc2cccc(-c3ccc(OCCCN4CCOCC4)nc3)c2)s1` [1-(5-tert-butyl-3-(2,2-dimethyl-3-oxopiperazine-1-carbonyl)thiophen-2-yl)-3-(3-(6-(3-morpholinopropoxy)pyridin-3-yl)phenyl)urea]: the IC50 is below 0.1 µM.
For the compound `Cc1ccc(NC(=O)Nc2sc(C(C)(C)C)cc2C(=O)N2CCNC(=O)C2(C)C)cc1-c1ccc(N(C)C)nc1` [1-(5-tert-butyl-3-(2,2-dimethyl-3-oxopiperazine-1-carbonyl)thiophen-2-yl)-3-(3-(6-(dimethylamino)pyridin-3-yl)-4-methylphenyl)urea], the IC50 is below 0.1 µM.
With `Cc1ccc(NC(=O)Nc2sc(C(C)(C)C)cc2C(=O)N2CCNC(=O)C2(C)C)cc1-c1ccc(NCC(C)C)nc1` [1-(5-tert-butyl-3-(2,2-dimethyl-3-oxopiperazine-1-carbonyl)thiophen-2-yl)-3-(3-(6-(isobutylamino)pyridin-3-yl)-4-methylphenyl)urea], the IC50 was below 0.1 µM.
The result for `CC(=O)c1ccc(-c2cc(NC(=O)Nc3sc(C(C)(C)C)cc3C(=O)N3CCNC(=O)C3(C)C)ccc2C)cn1` [1-(5-tert-butyl-3-(2,2-dimethyl-3-oxopiperazine-1-carbonyl)thiophen-2-yl)-3-(3-(6-ethanoylpyridin-3-yl)-4-methylphenyl)urea] reads below 0.1 µM; that for `CCc1ccc(-c2cc(NC(=O)Nc3sc(C(C)(C)C)cc3C(=O)N3CCNC(=O)C3(C)C)ccc2C)cn1` [1-(5-tert-butyl-3-(2,2-dimethyl-3-oxopiperazine-1-carbonyl)thiophen-2-yl)-3-(3-(6-ethylpyridin-3-yl)-4-methylphenyl)urea], below 0.1 µM; that for `CCc1ccc(-c2cc(NC(=O)Nc3sc(C(C)(C)C)cc3C(=O)N3CCNC(=O)C3(C)C)cc(F)c2C)cn1` [1-(5-tert-butyl-3-(2,2-dimethyl-3-oxopiperazine-1-carbonyl)thiophen-2-yl)-3-(3-(6-ethylpyridin-3-yl)-5-fluoro-4-methylphenyl)urea], below 0.1 µM.
Turning to `C#Cc1ccc(-c2cc(NC(=O)Nc3sc(C(C)(C)C)cc3C(=O)N3CCNC(=O)C3(C)C)ccc2C)cn1` [1-(5-tert-butyl-3-(2,2-dimethyl-3-oxopiperazine-1-carbonyl)thiophen-2-yl)-3-(3-(6-ethynylpyridin-3-yl)-4-methylphenyl)urea], the IC50 is below 0.1 µM.
In the case of `Cc1ccc(NC(=O)Nc2sc(C(C)(C)C)cc2C(=O)N2CCNC(=O)C2(C)C)cc1-c1ccc(F)nc1` [1-(5-tert-butyl-3-(2,2-dimethyl-3-oxopiperazine-1-carbonyl)thiophen-2-yl)-3-(3-(6-fluoropyridin-3-yl)-4-methylphenyl)urea], the IC50 is below 0.1 µM.
In the case of `Cc1ccc(NC(=O)Nc2sc(C(C)(C)C)cc2C(=O)N2CCNC(=O)C2(C)C)cc1-c1ccc(C(C)C)nc1` [1-(5-tert-butyl-3-(2,2-dimethyl-3-oxopiperazine-1-carbonyl)thiophen-2-yl)-3-(3-(6-isopropylpyridin-3-yl)-4-methylphenyl)urea], the IC50 was below 0.1 µM.
For the compound `COc1ccc(-c2cc(NC(=O)Nc3sc(C(C)(C)C)cc3C(=O)N3CCNC(=O)C3(C)C)ccc2C)cn1` [1-(5-tert-butyl-3-(2,2-dimethyl-3-oxopiperazine-1-carbonyl)thiophen-2-yl)-3-(3-(6-methoxypyridin-3-yl)-4-methylphenyl)urea], the IC50 was below 0.1 µM.
In the case of `COc1ccc(-c2cc(C)cc(NC(=O)Nc3sc(C(C)(C)C)cc3C(=O)N3CCNC(=O)C3(C)C)c2)cn1` [1-(5-tert-butyl-3-(2,2-dimethyl-3-oxopiperazine-1-carbonyl)thiophen-2-yl)-3-(3-(6-methoxypyridin-3-yl)-5-methylphenyl)urea], the IC50 is below 0.1 µM.
Take `CC(C)(C)c1cc(C(=O)N2CCNC(=O)C2(C)C)c(NC(=O)Nc2cccc(-c3cnco3)c2)s1` [1-(5-tert-butyl-3-(2,2-dimethyl-3-oxopiperazine-1-carbonyl)thiophen-2-yl)-3-(3-(oxazol-5-yl)phenyl)urea]: the IC50 was below 0.1 µM.
